This passage reports ED50, EC50 and ED90 results from US9464057B2, “Anti-malarial agents” (MMV MEDICINES FOR MALARIA VENTURE, priority 2013, dated 2016).

Where two headings read alike, the source gives them in different places.

In experiment [1] the test system is Plasmodium falciparum Pf3D70087/N9. The experiment can be described thus: in vivo therapeutic efficacy, 4-day-test in humanized mice. The note with it: single oral dose per day for four consecutive days; for ED50: 50% inhibition of blood parasitemia by flow cytometry; for ED90: 90% inhibition of blood parasitemia by flow cytometry. Also noted: species or system NOD-scidIL2Rγnull mice engrafted with human erythrocytes. As for the experimental part:
The ability of pyrazole derivatives according to the invention to show antimalarial efficacy in vivo can be tested by using the protocols described by Jimenez-Diaz et al., 2009, Antimicrob. Agents Chemother., 53:4533-4536. The therapeutic efficacy of compounds of invention against Plasmodium falciparum Pf3D70087/N9 growing in peripheral blood of NOD-scidIL2Rγnull mice engrafted with human erythrocytes. Efficacy is assessed by administering varying amounts of single oral doses of compounds per day for four consecutive days (4-day-test) and measuring their effect on blood parasitemia by flow cytometry. This assay provides effective doses of compounds capable of inhibiting 50% (ED50) and 90% (ED90) levels of parasitemia.
On the technique in general: A flow cytometer gives signals particle by particle.

For experiment [2], the system named is multidrug-resistant P. falciparum line Dd2. The experiment can be described thus: P. falciparum growth inhibition by 3H-hypoxanthine incorporation. Format: cell-based. The note with it: Plasmodium falciparum. As to the method: The ability of pyrazole derivatives according to the invention to kill P. falciparum parasites and/or to inhibit its proliferation is assayed through their ability to inhibit Plasmodium falciparum growth determined by 3H-hypoxanthine incorporation. The assay is derived from the method originally described by Desjardin et al., 1979, Antimicrob. Agents Chemother, 16: 710-718 which was modified. The method assesses parasite growth as reflected by incorporation of radiolabeled hypoxanthine by parasites. P. falciparum in culture are exposed to graded dilutions of test compounds for 48 h and incorporation of 3H-hypoxanthine over the last 24 h into parasite nucleic acids is determined by liquid scintillation spectroscopy. The specific method is described below: The test compounds are diluted by three-fold serial dilutions, in triplicate wells, using low hypoxanthine medium (LHM) RPMI (Roswell Park Memorial Institute medium), 1640, 0.5% Albumax, 0.2% sodium bicarbonate, 0.025M HEPES, 2 mM glutamine, 50 μg/ml Gentamicin, 2.5 μg/ml hypoxanthine, pH 7.35) in sterile flat-bottomed 96 well plates. Final volume in each well is 100 μl. Triplicate control wells contain 100 μl LHM without any inhibitor.
The mixed stage parasitized red blood cells (RBCs), containing greater than 50% ring stage parasites, are diluted to 1% parasitemia using uninfected RBCs, washed two times with LHM, and diluted to 3% hematocrit with LHM. 100 μl of diluted parasites is added to each well. Thus, the final hematocrit is 1.5% with 0.5% parasitemia at the beginning of the assay.
The plates comprising the test wells are placed in a humidified chamber, gassed with 5% CO2, 5% O2, 90% N2, and placed in a 36.5° C. incubator for 24 h. After 24 h incubation, 0.25 μCi of 3H-hypoxanthine in 20 μL LHM is added to each well. Plates are returned to the chamber, gassed, and incubated for an additional 24 h. At the end of the second 24 h incubation, plates are transferred to a −80° C. freezer and stored for a minimum of 2 h. then Plates are thawed and the lysed material is transferred to EasyTabC glass fiber filters (Perkin Elmer; PE) using a Packard Filtermate 196 Cell Harvester. Filters are dried, placed in an Omnifilter Cassette (Perkin Elmer), and 30 μl of Microscint-O-high efficiency liquid scintillation cocktail (PE) is added to each 3 well. The plates are sealed with a Top-Seal for 96 well microplates (Perkin Elmer) and counted using a Packard TopCount-1 microplate liquid scintillation counter. Results are tabulated and graphed using Prism GraphPad software to determine effective EC50 values (concentration at which 50% parasite growth inhibition occurs).

Experiment [3] concerns field isolates of Plasmodium falciparum. The experiment can be described thus: ex vivo parasite growth inhibition assay, field isolates of Plasmodium falciparum. It counts as cell-based. The note with it: P. falciparum field isolates (15 isolates), read-out: Median EC50. From the text: (§1) Compound 2 has also been tested against field isolates of Plasmodium falciparum (15 isolates) and Plasmodium vivax (15 isolates) using an ex vivo parasite growth inhibition assay as described in Marfurt et al., 2011, Antimicrob Agents Chemother., 55(3): 961.

In experiment [4] the test system is field isolates of Plasmodium vivax. The experiment can be described thus: ex vivo parasite growth inhibition assay, field isolates of Plasmodium vivax. It counts as cell-based. As to conditions: P. vivax field isolates (15 isolates), read-out: Median EC50.
Text: as §1

The mark [5] stands for this setting: P. falciparum Dd2, 48 h exposure, 3H-hypoxanthine incorporation over last 24 h, read-out: EC50 (concentration at which 50% parasite growth inhibition occurs).
[6] abbreviates: DD2, read-out: EC50 (concentration at which 50% parasite growth inhibition occurs).

For the compound `CCN(CC)CCCC(C)Nc1ccnc2cc(Cl)ccc12` (stereo not shown) [Chloroquine, reference compound], the ED50 in experiment [1] is listed as 4.3 mg/kg per day.
As to `COc1ccc(-c2c(C(F)(F)F)nn(C)c2NC(=O)Nc2ccc(F)cc2F)cc1` [Reference 1, reference compound], the EC50 in experiment [2] (setting [5]) is 150 nM.
Consider `Cn1nc(C(F)(F)F)c(-c2ccc(F)cc2)c1NC(=O)C[C@H](N)Cc1ccc(F)cc1` [Compound 3, (R)-3-amino-N-(3-(trifluoromethyl)-4-(4-fluorophenyl)-1-methyl-1H-pyrazol-5-yl)-4-(4-fluorophenyl)butanamide], for which, in experiment [1], the ED50 was determined as 1.8 mg/kg per day and the ED90 is 3.0 mg/kg per day. In addition, the EC50 in experiment [2] (setting [6]) was found to be 0.2 nM.
Turning to `CC(C)c1nc2ccccc2n1CC(=O)Nc1c(-c2ccc(Cl)cc2F)c(C(F)(F)F)nn1C` [Compound 1, N-(4-(4-chloro-2-fluorophenyl)-3-(trifluoromethyl)-1-methyl-1H-pyrazol-5-yl)-2-(2-isopropyl-1H-benzo[d]imidazol-1-yl)acetamide], in experiment [1], the ED50 amounted to 0.53 mg/kg per day and the ED90 is 0.94 mg/kg per day. Also, the EC50 in experiment [2] (setting [6]) was determined as 0.7 nM.
For the compound `Cc1nn(C)c(NC(=O)C[C@H](N)Cc2ccc(F)cc2)c1-c1ccc(F)cc1` [Compound 4, (R)-3-amino-4-(4-fluorophenyl)-N-(4-(4-fluorophenyl)-1,3-dimethyl-1H-pyrazol-5-yl) butanamide], in experiment [1], the ED50 stood at 3.0 mg/kg per day and the ED90 came out at 4.1 mg/kg per day. In experiment [2] (setting [6]), the EC50 was found to be 8 nM.
Regarding `O=C1C(O)=C([C@H]2CC[C@H](c3ccc(Cl)cc3)CC2)C(=O)c2ccccc21` [Atovaquone, reference compound], the EC50 in experiment [2] (setting [5]) turned out to be 1 nM.
For the compound `C[C@@H]1CC[C@H]2[C@@H](C)C(=O)O[C@@H]3O[C@@]4(C)CC[C@@H]1[C@]32OO4` [Artemisinin, reference compound], in experiment [2] (setting [5]), the EC50 is 12 nM.
As for `Cc1nn(C)c(NC(=O)Cn2c(C(C)C)nc3ccccc32)c1-c1ccc(Cl)cc1F` [Compound 2, N-(4-(4-chloro-2-fluorophenyl)-1,3-dimethyl-M-pyrazol-5-yl)-2-(2-isopropyl-M-benzo[d]imidazol-1-yl)acetamide], the values for the EC50 in experiment [3], in experiment [2] (setting [6]) and in experiment [4] were 15 nM, 5.4 nM and 10 nM, respectively. This compound also registered an ED50 in experiment [1] of 1.7 mg/kg per day. This compound came in with an ED90 in experiment [1] of 2.5 mg/kg per day.
Consider `Cn1nc(C(F)(F)F)c(-c2ccc(Br)cc2)c1NC(=O)Cc1ccccc1F` [Reference 2, reference compound], for which the EC50 in experiment [2] (setting [5]) was 50 nM.
